Experimental data from patent publication US20260034115A1, “YAP1 INHIBITORS” (H. LEE MOFFITT CANCER CENTER AND RESEARCH INSTITUTE, INC., priority 2021, published 2026).
Like-named read-outs stand apart in the source and are kept apart here. One block for each molecule: values may come before it.

Assays:
Yap1:Oct4 interaction = Yap1:Oct4 interaction (Homo sapiens, UniProt P46937); experiment: Yap1:Oct4 interaction (in vitro binding assay); conditions: FIG. 1
PC9-OSIMR cells = experiment: MTT IC50 on Osimertinib-resistant PC9 cells; type: cell-based
PC9luc cells = experiment: MTT IC50 on PC9 cells expressing a luciferase gene; type: cell-based
PC9luc-OSIMR cells = experiment: MTT IC50 on PC9-Osimertinib resistant cells expressing a luciferase gene; type: cell-based
PC9 cells = experiment: MTT IC50 on parental PC9 cells; type: cell-based

Sequence of Yap1:Oct4 interaction (P46937 whole entry): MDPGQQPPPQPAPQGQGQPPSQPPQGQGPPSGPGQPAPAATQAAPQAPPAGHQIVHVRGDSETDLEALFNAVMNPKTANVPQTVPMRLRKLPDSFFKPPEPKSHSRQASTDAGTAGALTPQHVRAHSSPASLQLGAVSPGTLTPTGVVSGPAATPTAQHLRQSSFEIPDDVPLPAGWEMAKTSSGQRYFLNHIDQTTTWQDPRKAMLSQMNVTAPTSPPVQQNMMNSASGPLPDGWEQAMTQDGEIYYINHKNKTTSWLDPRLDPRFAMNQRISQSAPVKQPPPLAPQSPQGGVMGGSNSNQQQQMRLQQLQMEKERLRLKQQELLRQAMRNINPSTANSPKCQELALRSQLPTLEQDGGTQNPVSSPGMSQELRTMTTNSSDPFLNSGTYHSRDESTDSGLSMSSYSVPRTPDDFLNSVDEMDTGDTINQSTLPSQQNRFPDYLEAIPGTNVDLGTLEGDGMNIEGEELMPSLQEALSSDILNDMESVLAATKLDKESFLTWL

SMILES: COC(=O)[C@H](Cc1cccc(OC)c1)NC(=O)CC1CCN(CCC(C)(C)C)CC1 [SR7-055]
IC50 (Yap1:Oct4 interaction): > 40000 nM

SMILES: N#Cc1ccc(CCCN2CCC(CC(=O)Nc3ccc(OCc4ccccc4)cc3)CC2)cc1 [SR7-061]
IC50 (Yap1:Oct4 interaction): 1300 nM

SMILES: CCOc1ccc(CCCN2CCC(CC(=O)Nc3ccc(OCc4ccccc4)cc3)CC2)cc1 [SR7-052]
IC50 (PC9-OSIMR cells; PC9-OSIMR, read-out: IC50 MTT): 5470 nM
IC50 (Yap1:Oct4 interaction): 445 nM
IC50 (PC9luc cells): 1270 nM
IC50 (PC9luc-OSIMR cells): 4030 nM
IC50 (PC9 cells; PC9, read-out: IC50 MTT): 1230 nM

SMILES: O=C(CC1CCN(CCCc2ccc(Cl)c(Cl)c2)CC1)Nc1ccc(OCc2ccccc2)cc1 [SR7-053]
IC50 (PC9-OSIMR cells; PC9-OSIMR, read-out: IC50 MTT): 3900 nM
IC50 (Yap1:Oct4 interaction): 564 nM
IC50 (PC9luc cells): 865 nM
IC50 (PC9luc-OSIMR cells): 3350 nM
IC50 (PC9 cells; PC9, read-out: IC50 MTT): 1160 nM

SMILES: COC(=O)[C@H](Cn1cc(-c2ccccc2)cn1)NC(=O)CC1CCN(C(=O)CCc2cccc(F)c2)CC1 [SR6-096]
IC50 (Yap1:Oct4 interaction): 870 ± 320 nM

SMILES: COC(=O)[C@H](Cc1ccc(OCc2ccccc2)cc1)NC(=O)CC1CCN(CCCc2ccc(F)c(C#N)c2)CC1 [SR6-170]
IC50 (Yap1:Oct4 interaction): 780 ± 150 nM

SMILES: COC(=O)[C@H](Cc1ccc(OCc2ccccc2)cn1)NC(=O)CC1CCN(C(=O)CCc2ccc(Cl)c(Cl)c2)CC1 [SR6-095]
IC50 (Yap1:Oct4 interaction): 1010 ± 260 nM

SMILES: O=C(CC1CCN(CCCc2cccc(F)c2)CC1)Nc1ccc(OCc2ccccc2)cc1 [SR7-057]
IC50 (Yap1:Oct4 interaction): 707 nM

SMILES: C=CC(=O)Nc1cc(Nc2nccc(-c3cn(C)c4ccccc34)n2)c(OC)cc1N(C)CCN(C)C [Osimertinib, reference compound]
IC50 (PC9-OSIMR cells; Homo sapiens, PC-9, Osimertinib-resistant PC9 cells, read-out: IC50): 5200 nM
IC50 (PC9-OSIMR cells; Homo sapiens, PC-9, PC9-OSIMR, read-out: IC50 MTT): 5250 nM
fold reduction in sensitivity (PC9-OSIMR cells; Osimertinib-resistant vs parental PC9 cells): 325 fold
IC50 (PC9luc cells; Homo sapiens, PC-9): 16.1 nM
IC50 (PC9luc-OSIMR cells): 4930 nM
IC50 (PC9 cells; Homo sapiens, PC-9, EGFR-mutant PC9 cells, read-out: IC50 for Osimertinib): 16 nM
IC50 (PC9 cells; Homo sapiens, PC-9, PC9, read-out: IC50 MTT): 16.2 nM

Continued, in another order:

IC50 (Yap1:Oct4 interaction): 1400 nM
SMILES: CCOc1ccc(CCCN2CCC(CC(=O)N[C@@H](Cc3cccc(OC)c3)C(=O)OC)CC2)cc1 [SR7-042]

IC50 (Yap1:Oct4 interaction): 1450 nM
SMILES: COC(=O)[C@H](Cc1cccc(OC)c1)NC(=O)CC1CCN(CCCc2ccc(Cl)c(Cl)c2)CC1 [SR7-045]

IC50 (Yap1:Oct4 interaction): 1850 ± 890 nM
SMILES: COC(=O)[C@H](Cc1ccc(OCc2ccccc2)cc1)NC(=O)CC1CCN(CCCc2ccc(Cl)c(Cl)c2)CC1 [SR6-086]

IC50 (PC9-OSIMR cells; PC9-OSIMR, read-out: IC50 MTT): > 40000 nM
IC50 (Yap1:Oct4 interaction): 2560 nM
IC50 (PC9luc cells): > 40000 nM
IC50 (PC9luc-OSIMR cells): > 40000 nM
SMILES: COC(=O)[C@H](Cc1ccc(OC)cc1)NC(=O)CC1CCN(CCCc2cccc(F)c2)CC1 [SR7-067]
IC50 (PC9 cells; PC9, read-out: IC50 MTT): > 40000 nM

IC50 (Yap1:Oct4 interaction): 750 ± 150 nM
SMILES: COC(=O)[C@H](Cc1ccc(OCc2ccccc2)cc1)NC(=O)CC1CCN(CCCc2cccc(F)c2)CC1 [SR6-085]

IC50 (Yap1:Oct4 interaction): 510 ± 80 nM
SMILES: CCOc1ccc(CCCN2CCC(CC(=O)N[C@@H](Cc3ccc(OCc4ccccc4)cc3)C(=O)OC)CC2)cc1 [SR6-087]
